Values quoted from earlier work as cited in paper PMC9099118 (Clinical and Translational Science, 2022).

Conditions: Genuair multidose DPI, HVs; cited from earlier work

O=C(O[C@H]1C[N+]2(CCCOc3ccccc3)CCC1CC2)C(O)(c1cccs1)c1cccs1 [aclidinium bromide]
mean emitted lung dose: approximately 35%
